Source: Sander's compilation of Henry's law constants

What was measured:
[1] = Henry solubility constant Hcp at 298.15 K (mol/(m3 Pa))
[2] = Henry solubility constant Hcp at 310 K (mol/(m3 Pa))
[3] = Henry solubility constant Hcp at 293 K (mol/(m3 Pa))
[4] = Henry solubility constant Hcp at 296 K (mol/(m3 Pa)); conditions: reference: Atlas et al. (1983)
[5] = reference: Bissonette et al. (1990)
[6] = reference: Munz and Roberts (1987)
[7] = reference: Tancrède and Yanagisawa (1990)
[8] = reference: Warner et al. (1980)
[9] = reference: Chiang et al. (1998)
[10] = reference: Pearson and McConnell (1975)
[11] = reference: Yurteri et al. (1987)
[12] = reference: Nicholson et al. (1984)
[13] = reference: Ruiz-Bevia and Fernandez-Torres (2010)

Compound: C=C(C)C1CC=C(C)CC1 (configuration not stated) [1-methyl-4-(1-methylethenyl)-cyclohexene]
- Henry solubility constant Hcp ([1]; reference: Copolovici and Niinemets (2007)): 0.00026
- Henry solubility constant Hcp ([1]; reference: Fichan et al. (1999)): 0.0007
- Henry solubility constant Hcp ([1]; reference: Leng et al. (2013)): 0.00048
- Henry solubility constant Hcp at 310 K ([2]; reference: Falk et al. (1990)): 0.0007

Compound: O=C=O [carbon dioxide]
- Henry solubility constant Hcp ([1]; reference: Bohr (1899)): 0.00034
- Henry solubility constant Hcp ([1]; reference: Bunsen (1855a)): 0.00034
- Henry solubility constant Hcp ([1]; reference: Geffcken (1904)): 0.00033
- Henry solubility constant Hcp ([1]; reference: Kunerth (1922)): 0.00033
- Henry solubility constant Hcp ([1]; reference: Morrison and Billett (1952)): 0.00033
- Henry solubility constant Hcp ([1]; reference: Murray and Riley (1971)): 0.00033
- Henry solubility constant Hcp ([1]; reference: Orcutt and Seevers (1937a)): 0.00033
- Henry solubility constant Hcp ([1]; reference: Zheng et al. (1997)): 0.00034
- Henry solubility constant Hcp at 310 K ([2]; reference: Power and Stegall (1970)): 0.00024

Compound: ClC(Cl)(Cl)Cl [tetrachloromethane]
- Henry solubility constant Hcp ([1]; reference: Balls (1980)): 0.00032
- Henry solubility constant Hcp [1, 5]: 0.00028
- Henry solubility constant Hcp ([1]; reference: Bullister and Wisegarver (1998)): 0.00029
- Henry solubility constant Hcp ([1]; reference: Chen et al. (2012)): 0.0003
- Henry solubility constant Hcp ([1]; reference: Gossett (1987)): 0.00033
- Henry solubility constant Hcp ([1]; reference: Hartkopf and Karger (1973)): 0.00037
- Henry solubility constant Hcp ([1]; reference: Hunter-Smith et al. (1983)): 0.00041
- Henry solubility constant Hcp ([1]; reference: Lutsyk et al. (2005)): 0.00034
- Henry solubility constant Hcp ([1]; reference: Munz and Roberts (1986)): 0.00042
- Henry solubility constant Hcp [1, 6]: 0.00033
- Henry solubility constant Hcp ([1]; reference: Park et al. (1997)): 0.00039
- Henry solubility constant Hcp [1, 7]: 0.00034
- Henry solubility constant Hcp [1, 8]: 0.00033
- Henry solubility constant Hcp at 293 K [3, 9]: 0.0004
- Henry solubility constant Hcp at 293 K [3, 10]: 0.00045
- Henry solubility constant Hcp at 293 K [3, 11]: 0.00043

Compound: ClC(Cl)=C(Cl)Cl [tetrachloroethene]
- Henry solubility constant Hcp [1, 5]: 0.00062
- Henry solubility constant Hcp ([1]; reference: Chen et al. (2012)): 0.00062
- Henry solubility constant Hcp ([1]; reference: Ervin et al. (1980)): 0.00057
- Henry solubility constant Hcp ([1]; reference: Gossett (1980)): 0.0011
- Henry solubility constant Hcp ([1]; reference: Gossett (1987)): 0.00056
- Henry solubility constant Hcp ([1]; reference: Gossett et al. (1985)): 0.00065
- Henry solubility constant Hcp ([1]; reference: Knauss et al. (2000)): 0.00048
- Henry solubility constant Hcp ([1]; reference: Lincoff and Gossett (1984)): 0.00057
- Henry solubility constant Hcp [1, 6]: 0.00054
- Henry solubility constant Hcp ([1]; reference: Park et al. (1997)): 0.00055
- Henry solubility constant Hcp ([1]; reference: Peng and Wan (1997)): 0.00061
- Henry solubility constant Hcp ([1]; reference: Peng and Wan (1998)): 0.00078
- Henry solubility constant Hcp ([1]; reference: Robbins et al. (1993)): 0.00058
- Henry solubility constant Hcp ([1]; reference: Shimotori and Arnold (2003)): 0.00058
- Henry solubility constant Hcp [1, 7]: 0.00059
- Henry solubility constant Hcp ([1]; reference: Vane and Giroux (2000)): 0.0006
- Henry solubility constant Hcp [1, 8]: 0.00034
- Henry solubility constant Hcp at 293 K [3, 9]: 0.00062
- Henry solubility constant Hcp at 293 K [3, 10]: 0.0005
- Henry solubility constant Hcp at 293 K [3, 11]: 0.00075

Compound: FC(F)OC(F)(F)C(F)Cl (configuration not stated) [2-chloro-1,1,2-trifluoroethyl difluoromethyl ether]
- Henry solubility constant Hcp at 310 K ([2]; reference: Lerman et al. (1983)): 0.00029

Compound: CC#N [ethanenitrile]
- Henry solubility constant Hcp ([1]; reference: Bebahani et al. (2002)): 0.49
- Henry solubility constant Hcp ([1]; reference: Benkelberg et al. (1995)): 0.53
- Henry solubility constant Hcp ([1]; reference: Hamm et al. (1984)): 0.53
- Henry solubility constant Hcp ([1]; reference: Ji and Evans (2007)): 0.52
- Henry solubility constant Hcp ([1]; reference: Snider and Dawson (1985)): 0.48
- Henry solubility constant Hcp at 293 K ([3]; reference: Yu (1992)): 0.082

Compound: FC(F)(Cl)Cl [dichlorodifluoromethane]
- Henry solubility constant Hcp [1, 6]: 3.1e-05
- Henry solubility constant Hcp ([1]; reference: Park et al. (1982)): 2.9e-05
- Henry solubility constant Hcp ([1]; reference: Reichl (1995)): 3e-05
- Henry solubility constant Hcp ([1]; reference: Scharlin and Battino (1994)): 2.9e-05
- Henry solubility constant Hcp ([1]; reference: Scharlin and Battino (1995)): 2.9e-05
- Henry solubility constant Hcp ([1]; reference: Warner and Weiss (1985)): 2.9e-05
- Henry solubility constant Hcp at 293 K [3, 10]: 2.5e-05

Compound: Cc1ccc(C)c(C)c1 [1,2,4-trimethylbenzene]
- Henry solubility constant Hcp ([1]; reference: Li et al. (2008)): 0.0017
- Henry solubility constant Hcp at 293 K [3, 11]: 0.0021
- Henry solubility constant Hcp at 310 K ([2]; reference: Järnberg and Johanson (1995)): 0.00062

Compound: ClC(Br)Br [dibromochloromethane]
- Henry solubility constant Hcp ([1]; reference: Ervin et al. (1980)): 0.0085
- Henry solubility constant Hcp [1, 12]: 0.0086
- Henry solubility constant Hcp [1, 13]: 0.011
- Henry solubility constant Hcp [1, 8]: 0.013
- Henry solubility constant Hcp at 310 K ([2]; reference: Zhang et al. (2002)): 0.0046

Compound: ClC(Cl)Br [bromodichloromethane]
- Henry solubility constant Hcp ([1]; reference: Ervin et al. (1980)): 0.0035
- Henry solubility constant Hcp [1, 12]: 0.0047
- Henry solubility constant Hcp [1, 13]: 0.0058
- Henry solubility constant Hcp [1, 8]: 0.0047
- Henry solubility constant Hcp at 310 K ([2]; reference: Zhang et al. (2002)): 0.0029

Compound: CCCCOC(=O)c1ccccc1C(=O)OCCCC [dibutyl phthalate]
- Henry solubility constant Hcp at 296 K [4]: 5.5
